Experimental data from US20150126530A1, “Novel Substituted Imidazopyrimidines as Gpbar1 Receptor Modulators” (Torrent Pharmaceuticals Limited., priority 2011, published 2015).

Key:
[1] = molecular target: T1, human TGR5 (Homo sapiens, UniProt Q8TDU6); test: cAMP Responsive Element (CRE)-Reporter Assay; type: cell-based; settings: luciferase activity relative to vehicle control, five hours, CHO cells transfected with human TGR5 and CRE-luciferase
T1 construct: host or cells: CHO cells (ATCC)
T1 sequence (Q8TDU6 1-330): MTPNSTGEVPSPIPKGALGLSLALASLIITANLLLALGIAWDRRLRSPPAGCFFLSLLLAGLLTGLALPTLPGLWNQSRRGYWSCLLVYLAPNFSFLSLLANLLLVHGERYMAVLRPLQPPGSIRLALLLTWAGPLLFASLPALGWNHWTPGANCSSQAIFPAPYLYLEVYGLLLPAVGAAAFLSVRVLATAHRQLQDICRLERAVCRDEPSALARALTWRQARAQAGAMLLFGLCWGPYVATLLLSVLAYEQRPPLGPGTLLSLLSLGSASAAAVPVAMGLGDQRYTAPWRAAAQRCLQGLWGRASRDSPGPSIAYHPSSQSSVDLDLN
Protocol: (A) cAMP Responsive Element (CRE)-Reporter Assay:
CHO cells (ATCC) were transfected with human TGR5 (oriGene) and CRE-luciferase reporter vector. Transfected cells were treated with vehicle control or test compounds (Conc 10 μM) for five hours and then lysed. Cell lysates were monitored for luciferase acivity. Increase in luciferase activity is considered as a result of TGR5 activation. Results were expressed as fold induction as compared to vehicle control.
Results are summarized in Table 2 where, + indicates 1.5-2 fold while ++, +++, ++++ indicate 2-3 fold, 3-4 fold, and >4 fold induction respectively relative to vehicle control when tested at 10 μM concentration.

[2] = system: Diabetic Hamster; test: Single dose efficacy on glucose tolerance (OGTT) in diabetic hamster; type: in vivo; settings: Mesocricetus auratus, read-out: Decrease in AUC of glucose % change w.r.t. vehicle control group; for inhibition in vivo at 41 mg/kg: single oral dose 41 mg/kg; for inhibition in vivo at 36 mg/kg: single oral dose 36 mg/kg
Protocol: i) Evaluation of Single Dose Efficacy of Test Compounds on Glucose Tolerance:
Thus efficacy can be assessed through the effect of test compounds on lowering of plasma glucose during OGTT through stimulating glucose stimulated insulin secretion.
The potential of test compounds in lowering of Plasma Glucose was evaluated in Oral glucose tolerance test (OGTT) in Diabetic Hamster Model, where diabetes has been induced by administration of low dose of Streptozotocin (STZ) to the High fat diet (HFD) fed glucose intolerant animals. The diabetic hamsters show impaired glucose stimulated insulin secretion and higher plasma glucose excursions than the normal animals, which remains elevated beyond 2 hrs post glucose load. Thus the animal model can be used for evaluating the potential of test compounds to lower plasma glucose through stimulating glucose stimulated insulin secretion. On the day of study post 6 hrs of fasting, test compounds or vehicle was administered orally at dose volume of 2 ml/kg to the hamsters of the respective treatment groups. Subsequent to dosing, a pre-glucose load blood sample was taken. A glucose load of 40% solution at 5 ml/Kg dose volume was administered orally. Blood samples through retroorbital plexus were taken at 15, 30 60 & 120 min. post glucose load and plasma was separated for glucose measurement. Post glucose load percentage change in plasma glucose and AUC of % change glucose by the treatment was assessed.

[3] = system: Human enteroendocrine cell-line (NCI-H716); test: Measurement of Glucagon Like Peptide-1 (GLP-1) secretion; type: cell-based; settings: NCI-H716 cells, one hour, with respect to vehicle control
Protocol: (C) Measurement of Glucagon Like Peptide-1 (GLP-1):
Human enteroendocrine cell-line (NCI-H716) were incubated with vehicle or test compounds for one hour. At the end of incubation period, levels of secreted GLP-1 in culture medium were measured by GLP-1 ELISA kit (Millipore). Results are summarized as fold increase in GLP secretion with respect to vehicle control in Table 4.

[4] = molecular target: T1, human TGR5; test: cAMP Measurement Assay (Alphascreen); type: cell-based; settings: cAMP levels, CHO cells transfected with human TGR5, one hour
Protocol: (B) cAMP Measurement Assay:
CHO cells (ATCC) were transfected with human TGR5 vector (oriGene). Transfected cells were treated with vehicle control or test compounds for one hour and then lysed. Levels of cAMP were measured in cell lysates employing Alphascreen cAMP assay kit (Perkin Elmer) and results were expressed EC50 values which are summarized in Table 3.

fold induction at 10 µM [1]	SMILES	also measured
3 to 4	CC(C)N(C(=O)c1c(-c2ccc(F)cc2)nc2ncccn12)c1ccc(Cl)cc1 [Compound no. 65, N-(4-chlorophenyl)-2-(4-fluorophenyl)-N-(propan-2-yl)imidazo[1,2-a]pyrimidine-3-carboxamide]	inhibition in vivo at 41 mg/kg [2]: 10%
3 to 4	CN(C(=O)c1c(-c2ccc(F)cc2)nc2ncccn12)c1ccc(F)cc1 [Compound no. 22, N,2-bis(4-fluorophenyl)-N-methylimidazo[1,2-a]pyrimidine-3-carboxamide]	Fold increase in GLP Release [3]: 2.13 fold; inhibition in vivo at 36 mg/kg [2]: 20%
> 4	CN(C(=O)c1c(-c2ccccc2)nc2ncccn12)c1ccc(Cl)cc1 [Compound no. 1, N-(4-chlorophenyl)-N-methyl-2-phenylimidazo[1,2-a]pyrimidine-3-carboxamide]	inhibition in vivo at 36 mg/kg [2]: 33%; EC50 [4]: 35 nM
2 to 3	CN(C(=O)c1c(-c2ccc3c(c2)OCO3)nc2ncccn12)c1ccc(F)cc1 [Compound no. 28, 2-(1,3-benzodioxol-5-yl)-N-(4-fluorophenyl)-N-methylimidazo[1,2-a]pyrimidine-3-carboxamide]	Fold increase in GLP Release [3]: 2.03 fold; inhibition in vivo at 39 mg/kg ([2]; single oral dose 39 mg/kg): 5%
> 4	CN(C(=O)c1c(-c2cccc(C(F)(F)F)c2)nc2ncccn12)c1ccc(F)cc1 [Compound no. 33, N-(4-fluorophenyl)-N-methyl-2-[3-(trifluoromethyl)phenyl]imidazo[1,2-a]pyrimidine-3-carboxamide]	Fold increase in GLP Release [3]: 1.83 fold; inhibition in vivo at 41 mg/kg [2]: 20%; EC50 [4]: 155 nM
2 to 3	COc1ccc(N(C)C(=O)c2c(-c3ccc(Cl)cc3)nc3ncccn23)c(OC)c1 [compound 25, 2-(4-chlorophenyl)-N-(2,4-dimethoxyphenyl)-N-methylimidazo[1,2-a]pyrimidine-3-carboxamide]	–
2 to 3	CN(C(=O)c1c(-c2ccccc2)nc2ncc(-c3ccccc3)cn12)c1ccc(Cl)cc1 [compound 12, N-(4-chlorophenyl)-N-methyl-2,6-diphenylimidazo[1,2-a]pyrimidine-3-carboxamide]	–
1.5 to 2	CN(C(=O)c1c(-c2ccccn2)nc2ncccn12)c1ccc(Cl)cc1 [Compound no. 11, N-(4-chlorophenyl)-N-methyl-2-(pyridin-2-yl)imidazo[1,2-a]pyrimidine-3-carboxamide]	–
3 to 4	COc1ccc(-c2nc3ncccn3c2C(=O)N(C)c2ccc3c(c2)CCC3)cc1OC [compound 13, N-(2,3-dihydro-1H-inden-5-yl)-2-(3,4-dimethoxyphenyl)-N-methylimidazo[1,2-a]pyrimidine-3-carboxamide]	–
3 to 4	CN(C(=O)c1c(-c2cccc(C(F)(F)F)c2)nc2ncccn12)c1ccc(Cl)cc1 [compound 31, N-(4-chlorophenyl)-N-methyl-2-[3-(trifluoromethyl)phenyl]imidazo[1,2-a]pyrimidine-3-carboxamide]	–
1.5 to 2	CN(C(=O)c1c(-c2ccccc2)nc2ncccn12)c1ccc(CC(=O)O)cc1 [Compound no. 3, (4-{methyl[(2-phenylimidazo[1,2-a]pyrimidin-3-yl)carbonyl]amino}phenyl)acetic acid]	–
3 to 4	O=C(c1c(-c2ccc(F)cc2)nc2ncccn12)N(c1ccc(Cl)cc1)C1CC1 [compound 136, N-(4-chlorophenyl)-N-cyclopropyl-2-(4-fluorophenyl)imidazo[1,2-a]pyrimidine-3-carboxamide]	–
1.5 to 2	CN(C(=O)c1c(-c2ccc(S(=O)(=O)N(C)C)cc2)nc2ncccn12)c1ccc(F)cc1 [compound 38, 2-[4-(dimethylsulfamoyl)phenyl]-N-(4-fluorophenyl)-N-methylimidazo[1,2-a]pyrimidine-3-carboxamide]	–
2 to 3	CN(C(=O)c1c(-c2cccnc2)nc2ncccn12)c1ccc(Cl)cc1 [compound 20, N-(4-chlorophenyl)-N-methyl-2-(pyridin-3-yl)imidazo[1,2-a]pyrimidine-3-carboxamide]	–
2 to 3	CN(C(=O)c1c(-c2cccc(C#N)c2)nc2ncccn12)c1ccc(Cl)cc1 [Compound no. 36, N-(4-chlorophenyl)-2-(3-cyanophenyl)-N-methylimidazo[1,2-a]pyrimidine-3-carboxamide]	inhibition in vivo at 38 mg/kg ([2]; single oral dose 38 mg/kg): 8%
3 to 4	COc1ccc(Oc2nc3ncccn3c2C(=O)N(C)c2ccc(Cl)cc2)cc1 [compound 49, N-(4-chlorophenyl)-2-(4-methoxyphenoxy)-N-methylimidazo[1,2-a]pyrimidine-3-carboxamide]	–
3 to 4	CN(C(=O)c1c(-c2ccc(O)cc2)nc2ncccn12)c1ccc(Cl)cc1 [compound 30, N-(4-chlorophenyl)-2-(4-hydroxyphenyl)-N-methylimidazo[1,2-a]pyrimidine-3-carboxamide]	Fold increase in GLP Release [3]: 1.69 fold
